Measurements: patent US11530195B1, “Protacs targeting coronavirus 3CL protease and preparation method and application thereof” (SHAANXI PANLONG PHARMACEUTICAL CO., LTD., priority 2022, dated 2022)
Read-outs that look alike come from different tables or passages of the source.

What was measured:
SARS-CoV-2 3CL^pro [1] = target: T1, SARS-CoV-2 3CL^pro (Severe acute respiratory syndrome coronavirus 2 (2019-nCoV) (SARS-CoV-2), UniProt P0DTD1); assay: 3CL^pro inhibitory activity test (fluorescence resonance energy transfer); assay type: biochemical
SARS-CoV-2 3CL^pro [2] = target: T1, SARS-CoV-2 3CL^pro; assay type: cell-based; details: Western Blot
[3] = HEK293E cells transfected with 3CL^pro plasmid, 24 h treatment, read-out: DC50
[4] = FRET, substrate Dabcyl-KTSAVLQSGFRKME-Edans 20 μM, enzyme 0.5 μM, read-out: IC50
[5] = HEK293E cells, 24 h, read-out: DC50 values

Compound	IC50 (SARS-CoV-2 3CL^pro [1]) [nM]	DC50 (SARS-CoV-2 3CL^pro [2]; [3]) [nM]	IC50 (SARS-CoV-2 3CL^pro [1]; [4]) [nM]	IC50 (SARS-CoV-2 3CL^pro [1]; FRET, read-out: IC50 values) [nM]	DC50 (SARS-CoV-2 3CL^pro [2]; [5]) [nM]
Cn1cc2cc(/N=c3\[nH]c(=O)n(Cc4cn(CCC(=O)Nc5cccc6c5CN(C5CCC(=O)NC5=O)C6=O)nn4)c(=O)n3Cc3cc(F)c(F)cc3F)c(Cl)cc2n1 (stereo not shown) [Compound 1]	100 to 1000	100 to 1000	–	–	–
Cn1cc2cc(/N=c3\[nH]c(=O)n(Cc4cn(CCCCCC(=O)Nc5cccc6c5CN(C5CCC(=O)NC5=O)C6=O)nn4)c(=O)n3Cc3cc(F)c(F)cc3F)c(Cl)cc2n1 (stereo not shown) [Compound 4, (E)-6-(4-((4-((6-chloro-2-methyl-2H-indazol-5-yl)imino)-2,6-dioxy-3-(2,4,5-Trifluorobenzyl)-1,3,5-triazin-1-yl)methyl)-1H-1,2,3-triazol-1-yl)-N-(2-Preparation of (2,6-Dioxypiperidin-3-yl)-1-oxoisoquinolin-4-yl)hexanamide]	–	< 100	< 100	< 100	< 100
Cn1cc2cc(/N=c3\[nH]c(=O)n(Cc4cn(CCC(=O)Nc5cccc6c5C(=O)N(C5CCC(=O)NC5=O)C6=O)nn4)c(=O)n3Cc3cc(F)c(F)cc3F)c(Cl)cc2n1 (stereo not shown) [Compound 7, (E)-3-(4-((4-((6-chloro-2-methyl-2H-indazol-5-yl)imino)-2,6-dioxy-3-(2,4,5-Trifluorobenzyl)-1,3,5-triazin-1-yl)methyl)-1H-1,2,3-triazol-1-yl)-N-(2-Preparation of (2,6-dioxopiperidin-3-yl)-1,3-dioxoisoindolin-4-yl)propionamide]	100 to 1000	100 to 1000	–	–	–
Cn1cc2cc(/N=c3\[nH]c(=O)n(Cc4cn(CCOCC(=O)Nc5cccc6c5CN(C5CCC(=O)NC5=O)C6=O)nn4)c(=O)n3Cc3cc(F)c(F)cc3F)c(Cl)cc2n1 (stereo not shown) [Compound 13, (E)-2-(2-(4-((4-((6-chloro-2-methyl-2H-indazol-5-yl)imino)-2,6-dioxy-3-(2,4,5-Trifluorobenzyl)-1,3,5-triazin-1-yl)methyl)-1H-1,2,3-triazol-1-yl)ethoxyyl)-N-(2-(2,6-dioxopiperidin-3-yl)-1-oxoisoquinolin-4-yl)acetamide]	100 to 1000	< 100	–	–	< 100
Cn1cc2cc(/N=c3\[nH]c(=O)n(Cc4cn(CCOCCOCC(=O)Nc5cccc6c5CN(C5CCC(=O)NC5=O)C6=O)nn4)c(=O)n3Cc3cc(F)c(F)cc3F)c(Cl)cc2n1 (stereo not shown) [Compound 14, (E)-2-(2-(2-(4-((4-((6-chloro-2-methyl-2H-indazol-5-yl)imino)-2,6-Dioxy-3-(2,4,5-trifluorobenzyl)-1,3,5-triazin-1-yl)methyl)-1H-1,2,3-triazol-1-yl)ethoxy)ethoxy)-N-(2-(2,6-dioxopiperidin-3-yl)-1-oxoisoindolin-4-yl)acetamide]	–	< 100	–	–	< 100
Cn1cc2cc(/N=c3\[nH]c(=O)n(Cc4cn(CCOCCOCCOCC(=O)Nc5cccc6c5CN(C5CCC(=O)NC5=O)C6=O)nn4)c(=O)n3Cc3cc(F)c(F)cc3F)c(Cl)cc2n1 (stereo not shown) [Compound 15, (E)-2-(2-(2-(2-(4-((4-((6-chloro-2-methyl-2H-indazol-5-yl)imino)-2,6-Dioxy-3-(2,4,5-trifluorobenzyl)-1,3,5-triazin-1-yl)methyl)-1H-1,2,3-triazole-1-yl)ethoxy)ethoxy)ethoxy)-N-(2-(2,6-dioxopiperidin-3-yl)-1-oxoisoindolin-4-yl)ethyl Preparation of amides]	100 to 1000	< 100	–	–	< 100
Cn1cc2cc(/N=c3\[nH]c(=O)n(Cc4cn(CCOCCOCC(=O)Nc5cccc6c5C(=O)N(C5CCC(=O)NC5=O)C6=O)nn4)c(=O)n3Cc3cc(F)c(F)cc3F)c(Cl)cc2n1 (stereo not shown) [Compound 17]	–	< 100	–	–	< 100
(E)-2-(2-(4-((4-((6-chloro-2-methyl-2H-indazol-5-yl)imino)-2,6-dioxy-3-(2,4,5-Trifluorobenzyl)-1,3,5-triazin-1-yl)methyl)-1H-1,2,3-triazol-1-yl)ethoxy yl)-N-(2-(2,6-dioxopiperidin-3-yl)-1,3-dioxoisoindolin-4-yl)acetamide [Compound 16]	–	< 100	100 to 1000	–	< 100
(E)-4-(4-((4-((6-chloro-2-methyl-2H-indazol-5-yl)imino)-2,6-dioxy-3-(2,4,5-Trifluorobenzyl)-1,3,5-triazin-1-yl)methyl)-1H-1,2,3-triazol-1-yl)-N-(2-Preparation of (2,6-dioxopiperidin-3-yl)-1,3-dioxoisoindolin-4-yl)butanamide [Compound 8]	–	< 100	< 100	< 100	< 100
(E)-5-(4-((4-((6-chloro-2-methyl-2H-indazol-5-yl)imino)-2,6-dioxy-3-(2,4,5-Trifluorobenzyl)-1,3,5-triazin-1-yl)methyl)-1H-1,2,3-triazol-1-yl)-N-(2-Preparation of (2,6-dioxopiperidin-3-yl)-1,3-dioxoisoindolin-4-yl)pentanamide [Compound 9]	–	< 100	< 100	< 100	< 100
(E)-6-(4-((4-((6-chloro-2-methyl-2H-indazol-5-yl)imino)-2,6-dioxy-3-(2,4,5-Trifluorobenzyl)-1,3,5-triazin-1-yl)methyl)-1H-1,2,3-triazol-1-yl)-N-(2-Preparation of (2,6-dioxopiperidin-3-yl)-1,3-dioxoisoindolin-4-yl)hexanamide [Compound 10]	–	< 100	< 100	< 100	< 100
(E)-7-(4-((4-((6-chloro-2-methyl-2H-indazol-5-yl)imino)-2,6-dioxy-3-(2,4,5-Trifluorobenzyl)-1,3,5-triazin-1-yl)methyl)-1H-1,2,3-triazol-1-yl)-N-(2-Preparation of (2,6-Dioxypiperidin-3-yl)-1-oxoisoquinolin-4-yl)heptamide [Compound 5]	–	< 100	100 to 1000	–	< 100
(E)-7-(4-((4-((6-chloro-2-methyl-2H-indazol-5-yl)imino)-2,6-dioxy-3-(2,4,5-Trifluorobenzyl)-1,3,5-triazin-1-yl)methyl)-1H-1,2,3-triazol-1-yl)-N-(2-Preparation of (2,6-dioxopiperidin-3-yl)-1,3-dioxoisoindolin-4-yl)heptamide [Compound 11]	–	100 to 1000	100 to 1000	–	–
(E)-8-(4-((4-((6-Chloro-2-methyl-2H-indazol-5-yl)imino)-2,6-dioxy-3-(2,4,5-Trifluorobenzyl)-1,3,5-triazin-1-yl)methyl)-1H-1,2,3-triazol-1-yl)-N-(2-Preparation of (2,6-dioxopiperidin-3-yl)-1,3-dioxoisoindolin-4-yl)octamide [Compound 12]	–	100 to 1000	100 to 1000	–	–
